From publication PMC4205289, “Triptolide inhibits human immunodeficiency virus type 1 replication by promoting proteasomal degradation of Tat protein” (Retrovirology, 2014)

Experiments:
[1] = tested on: HIV-1 molecular clone pNL4-3.Luc.R-E-; experiment: Transient gene expression assay, pNL4-3.Luc.R-E- transfected into Jurkat cells; type: cell-based; conditions: 24 h, 118-D-24 50 μM, flavopiridol 20 nM, triptolide 0.2 ~ 5 nM
Description: Figure 3 Triptolide inhibits HIV-1 transcription. (A) Time-of-addition analysis. TZM-bl cells were infected with HIV-1 (MOI = 0.5, strain NL4-3), and the virus inoculum was removed after 1 h of absorption. Test compounds (dextran sulfate at 10 μg/mL, zidovudine at 1 μM and triptolide at 5 nM) were added at the indicated time points after infection. Reporter signal was monitored at 48 h post-infection as a measure of viral replication. (B) The effect of triptolide on HIV-1 proviral DNA formation. Jurkat cells were infected with HIV-1 (MOI = 0.5, strain NL4-3) in the presence of the test compounds (INI 118-D-24, 50 μM; flavopiridol, 20 nM; and triptolide, 5 nM). Proviral DNA synthesis was determined by nested PCR analysis at 12 h post-infection. (C) The effect of triptolide on HIV-1 mRNA synthesis. Jurkat cells were infected with HIV-1(MOI = 0.5, strain NL4-3) in the presence of the test compounds (INI 118-D-24, 50 μM; flavopiridol, 20 nM; triptolide, 5 nM). Viral mRNA (the Gag region) content was determined by reverse-transcription PCR analysis 12 h post-infection. (D) Inhibition of luciferase expression encoded in pNL4-3.Luc.R-E- by tiptolide. […]
To further confirm that triptolide interferes with HIV-1 transcription, a transient gene expression assay was performed. […] At 24 h after transfection, viral gene transcription (indicated by luciferase activity) was determined. […]

HIV-1 proviral DNA = experiment: Nested PCR of integrated proviral DNA in infected Jurkat cells; type: cell-based; conditions: HIV-1 NL4-3 MOI 0.5, 12 h post-infection, 118-D-24 50 μM, flavopiridol 20 nM, triptolide 5 nM
Description: (§1) The effects of the test compounds on HIV-1 proviral DNA and mRNA synthesis were analyzed by PCR. Jurkat cells were grown in 24-well plates and infected with the HIV-1 NL4-3 strain at an MOI of 0.5, and then test compounds were added at the desired concentrations. After incubation for 12 h, genomic DNA and mRNA from the infected cells were isolated using a Genomic DNA Mini Preparation Kit (Beyotime, China) and TRIzol reagent (Invitrogen Life Technologies), respectively. Nested PCR was used for the amplification of integrated proviral DNA, as previously described. To determine viral mRNA expression levels, 1 μg of RNA was treated with RQ1 RNase-Free DNase (Promega) and reverse transcribed using M-MLV Reverse Transcriptase (Promega) and random primers (Promega). An aliquot of cDNA was used as template for amplification of the HIV-1 Gag region as described elsewhere. […]
(§2) All of the PCR products were visualized on a UV transilluminator in 2% agarose gels stained with ethidium bromide. In preliminary experiments, the exponential range of the PCR amplification curve was determined for all of the PCR products by varying the amount of input DNA and the number of PCR cycles. Based on these experiments, appropriate conditions were chosen to perform semi-quantitative PCRs.

HIV-1 mRNA = experiment: Reverse-transcription PCR of viral mRNA (Gag region) in infected Jurkat cells; type: cell-based; conditions: HIV-1 NL4-3 MOI 0.5, 12 h post-infection, 118-D-24 50 μM, flavopiridol 20 nM, triptolide 5 nM
Description: as §1, §2

HIV-1 NL4-3 = experiment: Time-of-addition experiment in TZM-bl cells; type: cell-based
Description: TZM-bl cells seeded in 96-well plates (2 × 10^4 /well) were infected with HIV-1 NL4-3 (MOI = 1). The virus inoculum was removed after 1 h of infection. Test compounds were added at different time points after infection (0 h, 2 h, 4 h, 6 h, 8 h, and 10 h). Dextran sulfate was added at 10 μg/mL, zidovudine at 1 μM and triptolide at 5 nM. At 48 h post-infection, the virus replication level was determined by analyzing luciferase activity in the cells as described above.

FLAG-Tat = tested on: T1, FLAG-Tat; experiment: Proteasome inhibition rescue of Tat expression, Western blot, HeLa cells; type: cell-based, HIV-1 NL4-3
T1 construct: expressed in transfected cells; host or cells: HeLa
Description: Figure 6 Triptolide reduces Tat protein stability by enhancing proteasomal degradation of Tat. (A) The effect of triptolide on Tat mRNA levels. HeLa cells were transfected with pEF1-Tat in the presence of increasing concentrations of triptolide. Cells were harvested 48 h post-transfection. The steady-state mRNA levels of Tat and GAPDH were examined using semi-quantitative reverse transcription PCR analysis. RT, reverse transcriptase. (B) The effect of triptolide on Tat protein degradation. HeLa cells were transfected with pEF1-FLAG-Tat in the presence of 5 nM triptolide or vehicle (DMSO). At 28 h post-transfection, cells were treated with 20 μg/mL of CHX to arrest protein synthesis. At 0, 1, 2, 3 h post-treatment, cells were harvested to determine protein expression levels using Western blot analysis. (C) The band intensities of FLAG-Tat in panel B were measured, and their natural log values were plotted as a function of time. Results were presented as the mean plus the standard deviations (n = 3). (D) Proteasome inhibition restores Tat protein expression. HeLa cells were transfected with pEF1-FLAG-Tat in the presence or absence of 5 nM triptolide. At 48 h post-transfection, cells were treated with 20 μM of MG132, and cultured for an additional 3 h before harvest. Protein expression levels were determined by Western blot analysis. TEXT PRINTED IN THE PICTURE: (C) DMSO: Half-lives: 2.0 h | (C) Triptolide: Half-lives: 0.4 h
Cells were washed with phosphate buffered saline (PBS) and lysed with radio immunoprecipitation assay lysis buffer supplemented with complete mini protease inhibitor cocktail (Roche) at 4°C for 1 h. Proteins from cell lysates were separated by SDS-PAGE and transferred to polyvinylidene difluoride membranes. After overnight incubation with primary antibodies at 4°C, each blot was probed with horseradish peroxidase-conjugated secondary antibody. Immunoreactive signals were detected with an enhanced chemiluminescence substrate (Thermo Scientific) using an AlphaEaseH FC Imaging System (Alpha Innotech Corporation).

## CN1CC[C@H](c2c(O)cc(O)c3c(=O)cc(-c4ccccc4Cl)oc23)[C@H](O)C1 [flavopiridol, reference compound]
[1]
  effect on luciferase expression from transfected pNL4-3.Luc.R-E-: significantly reduced luciferase expression
HIV-1 proviral DNA
  effect on proviral DNA formation (integration): no effect on virus integration
HIV-1 mRNA
  effect on viral mRNA synthesis: repress viral mRNA synthesis

## Cc1cn([C@H]2C[C@H](N=[N+]=[N-])[C@@H](CO)O2)c(=O)[nH]c1=O [zidovudine]
HIV-1 NL4-3; Human immunodeficiency virus 1, NL43, TZM-bl, read-out: inhibitory activity retained
  inhibition at 1 µM: 71%

## Dextran sulfate sodium salt
HIV-1 NL4-3; dextran sulfate at 10 μg/mL, luciferase at 48 h
  time-of-addition inhibition profile: dramatic early loss in activity

## MG132
FLAG-Tat; 20 μM MG132 for 3 h, without triptolide, relative to DMSO control
  increase of Tat level: 30%
FLAG-Tat; 20 μM MG132 for 3 h in the presence of 5 nM triptolide
  restoration of Tat protein, increase as % of Tat level in DMSO control: 30%
